Measurements published in US11938138B2, “Methods for improved treatment of cancer” (Washington University, priority 2020, dated 2024).
Entries after “also recorded” stand apart in the source; their conditions may differ.

What was measured:
[1] = system: MNNG/HOS osteosarcoma cells; details: as single agent; cited from earlier work
K562 cells [2] = assay: Cell cycle perturbation of K562 cells (DNA content, CD24, annexin V/PI); assay type: cell-based, human; details: five days, one-way ANOVA p<0.01 (FIG. 14H)
Method: (§1) CD24 surface protein was quantified using monoclonal human antibodies. Cells were spun down at 300 g for 3 minutes and washed twice with 1 mL of Cell Staining Buffer. The cell pellet was then resuspended in 50 μl of Cell Staining Buffer containing 0.2 μg of either CD24-APC or CD24-BV421. The tube was rotated at 4° C. in the dark for 30 minutes. After, cells were washed twice (as before) and finally resuspended in 200 μl of Cell Staining Buffer. Cells were excited with 450/45 and 660/20 lasers (wavelength/filter bandwidth, both in nm). For concomitant analysis of DNA content, we used CD24-APC. Cells were incubated with 10 μg/ml Hoechst 33342 in 5 mL of growth medium for 30 minutes prior to the staining protocol. For simultaneous assessment of apoptosis, cells were stained with CD24-BV421. After the final wash, instead of resuspending in 200 μl of Cell Staining Buffer, cells were washed twice with Annexin V Staining Buffer. Cells were then incubated in 50 μl Annexin V Staining Buffer containing 0.2 μg Annexin V-FITC and 100 μg/ml propidium iodide (PI). The reaction was incubated for 15 minutes at room temperature in the dark. Afterward, we added 150 μl of Annexin V Staining Buffer and proceeded to flow cytometry. All samples were measured on a Beckman-Coulter CytoFLEX S flow cytometer. Cells were excited with 450/45, 525/40, and 610/20 lasers. We collected 10,000 events per sample. The resulting data were processed with FlowJo Software for Mac Version 10.
We perturbed the cell cycle with lovastatin and nocodazole, two drugs classically used to synchronize cells in culture (Jackman and O'Connor, 2001), as well as the cyclin-dependent kinase inhibitors CVT-313 (Brooks et al., 1997) and RO-3306 (Vassilev et al., 2006). All drugs were dissolved in DMSO except nocodazole, which was dissolved in ethanol. […] Media was refreshed every 48 hours. After 36 hours of treatment, we stained for CD24 levels and nuclear DNA content. We gated for live, single cells using the forward scatter (FSC) and side scatter channels (SSC). Univariate cell cycle analysis was performed with FlowJo. We confirmed that all drugs perturbed cell cycle by altering the proportions of cells in either G1 or G2/M phase (FIG. 14G). […] Cultures remained under drug treatment until five days had elapsed, at which point we measured CD24 levels and stained for apoptosis (FIG. 14H). As before, we set gates to exclude debris to quantitate annexin V and PI, and measured CD24 in live cells gated on FSC and SSC. The G2 inhibitors, in particular, had very few cells in the FSC/SSC gate (typically below 5%).
For the analysis of annexin V levels in either JQ1- or DMSO-treated CD24^high and CD24^low cells, we used a three-way ANOVA with treatment, cell state, and day as independent variables. […] Multiple hypothesis correction was performed using Tukey's honestly significant difference. For the cell cycle inhibitor experiment, data were analyzed using a one-way ANOVA with Dunnett's post hoc test using either DMSO or EtOH (for RO-3306) as controls.

K562 cells [3] = assay: JQ1 treatment of K562 cells, CD24 surface staining by flow cytometry; assay type: cell-based, human
Method: HCT-116, N2a, HEK293T, and HepG2 cells were cultured in Dulbecco's Modified Eagle Medium (DMEM) supplemented with 10% fetal bovine serum (FBS) and 1% of either penicillin-streptomycin or antibiotic-antimycotic. K562 (unless otherwise indicated) and OCM-1A cells were grown under the same conditions as described above, replacing DMEM with RPMI 1640 Medium. Cells were grown at 37° C. with 5% carbon dioxide (CO2). Media was replenished every 2 days. HepG2 cells were a gift from the Genome Engineering iPSC Center (GEiC) at Washington University in St. Louis School of Medicine. OCM-1A cells were a gift from Dr. Michael Onken. For the CD24^high/CD24^low cell state analyses, K562 cells were grown in IMDM containing 10% v/v FBS and 1% penicillin-streptomycin at 37° C. with 5% CO2. Frozen aliquots were thawed and passaged every 48 hours until they reached a maximum concentration of 800,000 cells/ml. For experiments, cells were seeded at mid-log phase concentrations, around 400,000 cells/ml. At this point, ratio of CD24^high/CD24^low cells was approximately 1:1, as determined by flow cytometry.
CD24 surface protein was quantified using monoclonal human antibodies. Cells were spun down at 300 g for 3 minutes and washed twice with 1 mL of Cell Staining Buffer. […] All samples were measured on a Beckman-Coulter CytoFLEX S flow cytometer. […]

K562 cells [4] = assay: Imatinib treatment of K562 cells after JQ1 pretreatment (CD24, annexin V/PI staining); assay type: cell-based, human
Method: as §1, with “Cells were then incubated in 50 μl Annexin V Staining Buffer containing 0.2 μg Annexin V-FITC and 100 μg/ml propidium iodide (PI). The reaction was incubated for 15 minutes at room temperature in the dark. Afterward, we added 150 μl of Annexin V Staining Buffer and proceeded to flow cytometry.” left out, “Cells were excited with 450/45, 525/40, and 610/20 lasers. We collected 10,000 events per sample. The resulting data were processed with FlowJo Software for Mac Version 10.” left out
For the analysis of annexin V levels in either JQ1- or DMSO-treated CD24^high and CD24^low cells, we used a three-way ANOVA with treatment, cell state, and day as independent variables. […] For the cell cycle inhibitor experiment, data were analyzed using a one-way ANOVA with Dunnett's post hoc test using either DMSO or EtOH (for RO-3306) as controls.

MYC and CD24 mRNA = assay: qRT-PCR for MYC and CD24 expression in K562 cells treated with JQ1; assay type: cell-based, human; details: K562, 250 nM JQ1, first 24 hours (FIG. 14C)
Method: Cells were pelleted, resuspended in 300 μl of RNA CellProtect, and stored at −80° C. When we were ready to extract RNA, we thawed cells, prepared samples using QIAGEN RNEasy Plus Mini Kit, and quantitated with the Qubit RNA High Sensitivity kit. We reverse transcribed 500 ng of RNA with the SuperScript VILO cDNA Synthesis Kit in a 20 μl reaction, with the following thermocycling parameters: 25° C. for 10 minutes; 42° C. for 2 hours; 85° C. for 5 minutes. We then performed PCR with 2 μl of the RT product as template, 1 μl each of forward and reverse primer (10 μM), 6 μl ddH2O, and 10 μl PowerUp SYBR Green Master Mix. We ran the PCR on an ABI QuantStudio 3 with the following settings: 2 minutes at 50° C., then 2 minutes at 95° C. (hot start); 45 cycles of 95° C. for 15 s followed by 60° C. for 1 minute. We generated melt curves after each PCR and all samples yielded a single peak. Gene-specific primers were obtained from PrimerBank (Wang et al., 2012b). Data were normalized to the levels of […].

## Cc1sc2c(c1C)C(c1ccc(Cl)cc1)=N[C@@H](CC(=O)OC(C)(C)C)c1nnc(C)n1-2 [JQ1]
[1]
  tumor volume and weight: had no effect on either
K562 cells [2]; 250 nM JQ1
  reduction in CD24high cells compared with cell cycle inhibitors: greatest reduction
K562 cells [2]; annexin V/PI
  apoptosis compared with lovastatin, its closest competitor: significantly less apoptosis
K562 cells [3]; K562, 250 nM JQ1, 7-day time course (FIG. 6D), rapid over first two days, stable at one week
  time course of conversion to CD24low state: plateaus at day four; also recorded: plateaued by day 4
K562 cells [3]; K562, 250 nM JQ1, 96 h (FIG. 6C), start equal proportions CD24high/CD24low
  CD24low cells in the population after JQ1 exposure: > 95%
K562 cells [4]; BET inhibitor pretreatment, then imatinib 1 μM
  sensitivity of K562 cells to imatinib: sensitizes K562 cells to imatinib
K562 cells [4]; K562, 250 nM JQ1 for five days, DMSO group 54%
  fraction of CD24high cells after pretreatment (mean): 17%
MYC and CD24 mRNA
  time of JQ1 exposure within which MYC mRNA levels fell: ≤ 3 h
